In US7642358B2, “Substituted phenylacetic acids” (Metabolex, Inc., priority 2002, dated 2010):

System: C57BL/6J ob/ob mice
Assay: Anti-diabetic activity (plasma glucose lowering) in C57BL/6J ob/ob mice, oral gavage
Type: in vivo, mouse
Settings: male C57BL/6J ob/ob mice, oral gavage once a day for 1-4 days; for minimal effective dose: Mus musculus, dose effective for plasma glucose lowering, blood taken 6 hours after each dose, read-out: Potency
Procedure: The anti-diabetic activities of the compounds were evaluated in the C57BL/6j ob/ob Mice model.
Male, 7-9 weeks old, C57BL/6J ob/ob mice were purchased from The Jackson Laboratory (Bar Harbor, Me., USA). Animals were housed (4-5 mice/cage) under standard laboratory conditions at 22±3° C. temperature and 50±20% relative humidity, and were maintained on a diet of Purina rodent chow and water ad libitum. Prior to treatment, blood was collected from the tail vein of each animal. Mice that had non-fasting plasma glucose levels between 250 and 500 mg/dl were used. Each treatment group consisted of 8-10 mice that were distributed so that the mean glucose levels were equivalent in each group at the start of the study. Mice were dosed orally by gavage once a day for 1-4 days with vehicle and one or more dose of test compound at a dose ranging from 5 to 125 mg/kg. Compounds were delivered in a liquid formulation containing 5% (v/v) dimethyl sulfoxide (DMSO), 1% (v/v) Tween 80® and 0.9% (w/v) methylcellulose. The gavage volume was 10 ml/kg. Blood samples were taken at 6 hours after the each dose and analyzed for plasma glucose. Food intake and body weight were measured daily. Plasma glucose concentrations were determined colorimetrically using a commercial glucose oxidase method (Sigma Chemical Co, St. Louis, Mo., USA). Significant difference between groups (comparing drug-treated to vehicle-treated) was evaluated using the Student unpaired t-test.
FIG. 6 illustrates the anti-diabetic effects of selected compounds of the present invention. Table 15 provides the relative potency of some of these selected compounds. Compounds that are effective for glucose lowering at the dose of ≧125 mg/kg are assigned a potency of +; compounds that are effective for glucose lowering at a dose of >25 mg/kg but <125 mg/kg are assigned a potency of ++; compounds that are effective for glucose lowering at a dose of ≦25 mg/kg are assigned a potency of +++. For example, a compound at 25 mg/kg that lowered the animal glucose level from 400 mg/dL (vehicle group value) to 250 mg/dL, is assigned the potency of +++.

Compound	minimal effective dose [mg/kg]	Insulin Level compared with vehicle
O=C(O)C(Oc1ccccc1-c1nc2ccccc2o1)c1ccc(Cl)cc1 (centres unmarked) [Example I-1]	25 to 125	Lower
O=C(O)C(Oc1ccccc1-c1nc2ccccc2o1)c1cccc(C(F)(F)F)c1 (centres unmarked) [Example I-3]	≥ 125	Lower
O=C(O)C(Oc1ccc(C(F)(F)F)cc1-c1nc2ccccc2o1)c1cccc(C(F)(F)F)c1 (centres unmarked) [Example I-89]	≤ 25	Lower
O=C(O)C(Oc1ccc(C(F)(F)F)cc1-c1nc2ccccc2o1)c1ccccc1 (centres unmarked) [Example I-92]	≤ 25	Lower
O=C(O)C(Oc1ccc(Cl)cc1-c1nc2ccccc2o1)c1ccc(Cl)cc1 (centres unmarked) [Example I-190]	≤ 25	Lower
O=C(O)C(Oc1ccc(Cl)cc1-c1nc2ccccc2o1)c1cccc(C(F)(F)F)c1 (centres unmarked) [Example I-191]	≤ 25	Lower
COc1ccc(C(Oc2ccc(Cl)cc2-c2nc3ccccc3o2)C(=O)O)cc1 (centres unmarked) [Example I-193]	≤ 25	Lower
O=C(O)C(Oc1ccc(Cl)cc1-c1nc2ccccc2o1)c1cccc(Cl)c1 (centres unmarked) [Example I-194]	≤ 25	Lower
O=C(O)[C@@H](Oc1ccc(C(F)(F)F)cc1-c1nc2ccccc2o1)c1ccccc1 [Example I-369]	≤ 25	Lower
CC(Oc1ccc(C(F)(F)F)cc1-c1nc2ccccc2o1)(C(=O)O)c1ccccc1 (centres unmarked) [Ia-365]	≤ 25	Lower
CC(Oc1ccc(C(F)(F)F)cc1-c1nc2ccccc2o1)(C(=O)O)c1ccccc1 (centres unmarked) [Ia-366]	–	Lower
Cc1ccc(OC(C(=O)O)c2cccc(C(F)(F)F)c2)c(-n2nc3ccccc3n2)c1 (centres unmarked) [XI-2]	≤ 25	Lower
Cc1ccc(OC(C(=O)O)c2ccc(C(F)(F)F)cc2)c(-n2nc3ccccc3n2)c1 (centres unmarked) [XI-6]	≤ 25	Lower
O=C(O)C(Oc1ccc(Cl)cc1-n1nc2ccccc2n1)c1ccc(C(F)(F)F)cc1 (centres unmarked) [XI-24]	≤ 25	Lower
O=C(O)C(Oc1ccc(C(F)(F)F)cc1-n1nc2ccccc2n1)c1cccc(C(F)(F)F)c1 (centres unmarked) [XI-47]	≤ 25	Lower
O=C(O)C(Oc1ccc(C(F)(F)F)cc1-n1nc2ccccc2n1)c1ccc(C(F)(F)F)cc1 (centres unmarked) [XI-51]	≤ 25	Lower
Cc1ccc(OC(C)(C(=O)O)c2ccc(Cl)cc2)c(-n2nc3ccccc3n2)c1 (centres unmarked) [XIa-5]	≤ 25	Lower
CC(Oc1ccc(C(F)(F)F)cc1-n1nc2ccccc2n1)(C(=O)O)c1ccc(C(F)(F)F)cc1 (centres unmarked) [XIa-51]	≤ 25	Lower
